# How the values were obtained:
# [1] = system: chloroquine sensitive (CQS) strain (NF54) of P. falciparum; experiment: In vitro antiplasmodial activity, Assay A (parasite lactate dehydrogenase assay); format: cell-based; settings: Plasmodium falciparum
# Method: Test samples were screened for in vitro antiplasmodial activity against a chloroquine sensitive (CQS) strain (NF54) of the malaria parasite P. falciparum. Continuous in vitro cultures of asexual erythrocyte stages of P. falciparum were maintained using a modified version of the method of Trager and Jensen (1976).1 Quantitative assessment of antiplasmodial activity in vitro was determined via the parasite lactate dehydrogenase assay using a modified method described by Makler (1993). The test samples were tested in triplicate on two separate occasions. Further dilutions were prepared in complete medium on the day of the experiment. Samples were tested as a suspension if not completely dissolved. Chloroquine and artesunate were used as the reference drugs. A full dose-response were performed starting at a concentration of 3000 nM, which is then serially diluted 2-fold in complete medium to give 10 concentrations; with the lowest concentration being approximately 6 nM. The same dilution techniques were used for all samples. References were tested at a starting concentration of 1000 ng/mL. The highest concentration of solvent to which the parasites were exposed has no measurable effect on the parasite viability (data not shown).
# [2] = system: CQC sensitive strain (NF54) of P. falciparum; experiment: In vitro antiplasmodial activity, Assay B (as described by Vennerstrom et al. 2004); format: cell-based; settings: Plasmodium falciparum; NF54, Vennerstrom et al. method
# Method: Compounds were screened against CQC sensitive strain (NF54) of P. falciparum in vitro as described by Vennerstrom et al. (2004). A full dose-response were performed starting at a concentration of 3000 nM, which is then serially diluted 2-fold in complete medium to give 10 concentrations; with the lowest concentration being approximately 6 nM. The same dilution techniques were used for all samples. References were tested at a starting concentration of 1000 ng/mL. The highest concentration of solvent to which the parasites were exposed has no measurable effect on the parasite viability (data not shown).
IC50 [1] [nM],IC50 [2] [nM],Structure (SMILES)
15 to 50,< 15,"C[C@H]1COCCN1C(=O)c1ccc(-c2cc3ncnc(-c4ccnc(C(C)(C)O)c4)c3o2)cc1 [Compound D159, (S)-(4-(4-(2-(2-hydroxypropan-2-yl)pyridin-4-yl)furo[3,2-d]pyrimidin-6-yl)phenyl)(3-methylmorpholino) methanone]"
15 to 50,< 15,"C[C@@H]1COCCN1C(=O)c1ccc(-c2cc3ncnc(-c4ccnc(C(C)(C)O)c4)c3o2)cc1 [Compound D160, (R)-(4-(4-(2-(2-hydroxypropan-2-yl)pyridin-4-yl)furo[3,2-d]pyrimidin-6-yl)phenyl)(3-methylmorpholino) methanone]"
< 15,< 15,"CC1CN(C(=O)c2ccc(-c3cc4ncnc(-c5ccnc(C(C)(C)O)c5)c4o3)cc2)CC(C)O1 (stereo not drawn) [Compound D161, (2,6-dimethylmorpholino)(4-(4-(2-(2-hydroxypropan-2-yl)pyridin-4-yl)furo[3,2-d]pyrimidin-6-yl)phenyl)methanone]"
< 15,< 15,"CC(C)(O)c1cccc(-c2ncnc3cc(-c4ccc(C(=O)N5C[C@H]6C[C@@H]5CO6)cc4)oc23)c1 [Compound D172, ((1R,4R)-2-oxa-5-azabicyclo[2.2.1]heptan-5-yl)(4-(4-(3-(2-hydroxypropan-2-yl)phenyl)furo[3,2-d]pyrimidin-6-yl)phenyl)methanone]"
< 15,< 15,"CC(C)(O)c1cccc(-c2ncnc3cc(-c4ccc(C(=O)N5C[C@@H]6C[C@H]5CO6)cc4)oc23)c1 [Compound D174, ((1S,4S)-2-oxa-5-azabicyclo[2.2.1]heptan-5-yl)(4-(4-(3-(2-hydroxypropan-2-yl)phenyl)furo[3,2-d]pyrimidin-6-yl)phenyl)methanone]"
< 15,< 15,"CC(C)(O)c1cc(-c2ncnc3cc(-c4ccc(C(=O)N5C[C@@H]6C[C@H]5CO6)cc4)oc23)ccn1 [Compound D176, ((1S,4S)-2-oxa-5-azabicyclo[2.2.1]heptan-5-yl)(4-(4-(2-(2-hydroxypropan-2-yl)pyridin-4-yl)furo[3,2-d]pyrimidin-6-yl)phenyl)methanone]"
< 15,< 15,"CC(C)(O)c1cc(-c2ncnc3cc(-c4ccc(C(=O)N5C[C@H]6C[C@@H]5CO6)cc4)oc23)ccn1 [Compound D177, ((1R,4R)-2-oxa-5-azabicyclo[2.2.1]heptan-5-yl)(4-(4-(2-(2-hydroxypropan-2-yl)pyridin-4-yl)furo[3,2-d]pyrimidin-6-yl)phenyl)methanone]"
< 15,< 15,"C[C@H]1CN(C(=O)c2ccc(-c3cc4ncnc(-c5cccc(C(C)(C)O)c5F)c4o3)cc2)CCO1 [Compound D191, (S)-(4-(4-(2-fluoro-3-(2-hydroxypropan-2-yl)phenyl)furo[3,2-d]pyrimidin-6-yl)phenyl)(2-methylmorpholino) methanone]"
< 15,< 15,"C[C@@H]1CN(C(=O)c2ccc(-c3cc4ncnc(-c5cccc(C(C)(C)O)c5F)c4o3)cc2)CCO1 [Compound D192, (R)-(4-(4-(2-fluoro-3-(2-hydroxypropan-2-yl)phenyl)furo[3,2-d]pyrimidin-6-yl)phenyl)(2-methylmorpholino) methanone]"
< 15,< 15,"C[C@@H]1CN(C(=O)c2ccc(-c3cc4ncnc(-c5cccc(C(C)(C)O)c5F)c4o3)cc2)C[C@@H](C)O1 [Compound D193, ((2R,6R)-2,6-dimethylmorpholino)(4-(4-(2-fluoro-3-(2-hydroxypropan-2-yl)phenyl)furo[3,2-d]pyrimidin-6-yl)phenyl)methanone]"
< 15,< 15,"C[C@H]1CN(C(=O)c2ccc(-c3cc4ncnc(-c5cccc(C(C)(C)O)c5F)c4o3)cc2)C[C@H](C)O1 [Compound D194, ((2S,6S)-2,6-dimethylmorpholino)(4-(4-(2-fluoro-3-(2-hydroxypropan-2-yl)phenyl)furo[3,2-d]pyrimidin-6-yl)phenyl)methanone]"
< 15,< 15,"C[C@H]1COCCN1C(=O)c1ccc(-c2cc3ncnc(-c4cccc(C(C)(C)O)c4F)c3o2)cc1 [Compound D195, (S)-(4-(4-(2-fluoro-3-(2-hydroxypropan-2-yl)phenyl)furo[3,2-d]pyrimidin-6-yl)phenyl)(3-methylmorpholino) methanone]"
< 15,< 15,"C[C@@H]1COCCN1C(=O)c1ccc(-c2cc3ncnc(-c4cccc(C(C)(C)O)c4F)c3o2)cc1 [Compound D196, (R)-(4-(4-(2-fluoro-3-(2-hydroxypropan-2-yl)phenyl)furo[3,2-d]pyrimidin-6-yl)phenyl)(3-methylmorpholino) methanone]"
< 15,< 15,"CC(C)(O)c1nccc(-c2ncnc3cc(-c4ccc(C(=O)N5CCOCC5)cc4)oc23)c1F [Compound D207, (4-(4-(3-fluoro-2-(2-hydroxypropan-2-yl)pyridin-4-yl)furo[3,2-d]pyrimidin-6-yl)phenyl)(morpholino) methanone]"
< 15,< 15,"CC(C)(O)c1nccc(-c2ncnc3cc(-c4ccc(C(=O)N5C[C@H]6C[C@@H]5CO6)cc4)oc23)c1F [Compound D208, ((1R,4R)-2-oxa-5-azabicyclo[2.2.1]heptan-5-yl)(4-(4-(3-fluoro-2-(2-hydroxypropan-2-yl)pyridin-4-yl)furo[3,2-d]pyrimidin-6-yl)phenyl)methanone]"
> 50,> 50,"CS(=O)(=O)c1ccc(-c2cc3ncnc(-c4ccnc(N5CC(O)C5)c4)c3o2)cc1 [Compound P1, 1-(4-(6-(4-(methylsulfonyl)phenyl)furo [3,2-d]pyrimidin-4-yl)pyridin-2-yl)azetidin-3-ol]"
> 50,< 15,"C[C@@H]1CN(C(=O)c2ccc(-c3cc4ncnc(-c5ccnc(C(C)(C)O)c5)c4o3)cc2)C[C@H](C)O1 [Compound P17, ((2S,6R)-2,6-dimethylmorpholino)(4-(4-(2-(2-hydroxypropan-2-yl)pyridin-4-yl)furo[3,2-d]pyrimidin-6-yl)phenyl)methanone]"
15 to 50,< 15,"C[C@H]1CN(C(=O)c2ccc(-c3cc4ncnc(-c5ccnc(C(C)(C)O)c5)c4o3)cc2)CCO1 [Compound P18, (S)-(4-(4-(2-(2-hydroxypropan-2-yl)pyridin-4-yl)furo[3,2-d]pyrimidin-6-yl)phenyl)(2-methylmorpholino) methanone]"
< 15,< 15,"C[C@@H]1CN(C(=O)c2ccc(-c3cc4ncnc(-c5ccnc(C(C)(C)O)c5)c4o3)cc2)CCO1 [Compound P19, (R)-(4-(4-(2-(2-hydroxypropan-2-yl)pyridin-4-yl)furo[3,2-d]pyrimidin-6-yl)phenyl)(2-methylmorpholino) methanone]"
< 15,< 15,"C[C@@H]1CN(C(=O)c2ccc(-c3cc4ncnc(-c5cccc(C(C)(C)O)c5F)c4o3)cc2)C[C@H](C)O1 [Compound P20, ((2S,6R)-2,6-dimethylmorpholino)(4-(4-(2-fluoro-3-(2-hydroxypropan-2-yl)phenyl)furo[3,2-d]pyrimidin-6-yl)phenyl)methanone]"
< 15,< 15,"CC(C)(O)c1cccc(-c2ncnc3cc(-c4ccc(C(=O)N5C[C@H]6C[C@@H]5CO6)cc4)oc23)c1F [Compound P21, ((1R,4R)-2-oxa-5-azabicyclo[2.2.1]heptan-5-yl)(4-(4-(2-fluoro-3-(2-hydroxypropan-2-yl)phenyl)furo[3,2-d]pyrimidin-6-yl)phenyl)methanone]"
> 50,> 50,"CC(C)(O)c1cc(-c2ncnc3cc(-c4ccc(C5(C(=O)N6C[C@@H]7C[C@H]6CO7)CC5)cc4)oc23)ccn1 [Compound P23, ((1S,4S)-2-oxa-5-azabicyclo[2.2.1]heptan-5-yl)(1-(4-(4-(2-(2-hydroxypropan-2-yl)pyridin-4-yl)furo[3,2-d]pyrimidin-6-yl)phenyl)cyclopropyl) methanone]"
> 50,> 50,"CC(C)(O)c1cc(-c2ncnc3cc(-c4ccc(C5(C(=O)N6C[C@H]7C[C@@H]6CO7)CC5)cc4)oc23)ccn1 [Compound P24, ((1R,4R)-2-oxa-5-azabicyclo[2.2.1]heptan-5-yl)(1-(4-(4-(2-(2-hydroxypropan-2-yl)pyridin-4-yl)furo[3,2-d]pyrimidin-6-yl)phenyl)cyclopropyl) methanone]"
> 50,,"CC(C)(O)c1cc(-c2ncnc3cc(-c4ccc(C(=O)N5CCOCC5)cc4)oc23)ccc1F [Compound P32, (4-(4-(4-fluoro-3-(2-hydroxypropan-2-yl)phenyl)furo[3,2-d]pyrimidin-6-yl)phenyl)(morpholino) methanone]"
15 to 50,,"CC(C)(O)c1cccc(-c2ncnc3cc(-c4ccc(S(N)(=O)=O)cc4)oc23)c1F [Compound P33, 4-(4-(2-fluoro-3-(2-hydroxypropan-2-yl)phenyl)furo[3,2-d]pyrimidin-6-yl)benzenesulfonamide]"
